# Entries after “also recorded” stand apart in the source; their conditions may differ. No end group written: not given here.
# Legend:
# Caco-2 monolayers [1] = assay: Transepithelial electrical resistance (TEER) of Caco-2 monolayers; type: cell-based, human; settings: for Change in TEER values after 1 h treatment with CPPs: Caco-2 monolayers differentiated 21 days, each CPP at a concentration without cytotoxicity, 37 °C, n = 3, p < 0.01 vs no treatment; for Reduction in TEER: Caco-2 monolayers, CPP 100 µM
# Protocol: Transepithelial electrical resistance (TEER) represents the barrier integrity and permeability of the Caco-2 monolayers. To measure TEER, cells were seeded and grown on 12-well cell culture inserts ([…], 1.1 cm, polyethylene terephthalate membrane, cellQART) for a period of 21 days. TEER was measured using Millicell® ERS-2 Voltohmeter (MERS00002), combined with a STX-04 electrode. Final TEER values were expressed relative to the surface area of the inserts (ΩTotal - ΩInsert X cm^2). TEER values were monitored every day from day 14 until day 21, before, and after permeability experiments. On day 21 of differentiation, TEER values of the monolayers were 600 ± 50 Ω X cm^2 (mean ± SD; n = 48).
# (§1) For Fluorescein Isothiocyanate (FITC)-Dextran permeability experiments, Caco-2 monolayers differentiated for 21 days were transferred to 12-well plates containing 1.5 ml phenol red free DMEM media (pH 7.4) in the basal compartments. For the treatment, medium in the apical compartment was replaced by 0.5 ml phenol red free DMEM medium containing different concentrations of CPPs, and the plates were incubated at 37 °C for 1 h. Post treatment, inserts were transferred to a new 12-well plate containing 1.5 ml fresh phenol red free DMEM and the apical medium was replaced by medium containing 1 mg/ml FITC-dextran 4 (Sigma-Aldrich). The incubation with the permeability marker lasted for 30 min. Samples were collected from the basolateral compartments post incubation and fluorescence was measured using multi-well fluorescent plate reader (Synergy; excitation wavelength: 490 nm, emission wavelength: 520 nm). The concentration of FITC-dextran in the samples was calculated by comparing the relative fluorescence values to the FITC-dextran standard curve. The apparent permeability coefficient (Papp, cm/s) was calculated according to Eq. 1. Papp=dQ/dt×1/(A×C0), (1) Where dQ/dt is the drug permeation rate (μg/s); a is the surface area of the inserts (cell monolayer) (cm^2); and C0 is the initial concentration at the apical side (μg/ml).
# Saccharomyces cerevisiae = test system: Saccharomyces cerevisiae; design: method as in Palm et al in 2006; settings: ref Palm et al in 2006; cited from earlier work
# Caco-2 monolayers [2] = assay: FITC-dextran translocation assay; type: cell-based, human; settings: for Paracellular permeability (TEER and FITC-dextran assays collectively) / FITC-dextran translocation: Caco-2 monolayers; for Paracellular permeability (TEER and FITC-dextran assays collectively): in the concentrations tested; for Paracellular permeability of FITC-dextran (Papp A-B): Caco-2 monolayers 21 days, each CPP at a concentration without cytotoxicity, apical, 1 h, 37 °C, pH 7.4, then 1 mg/ml FITC-dextran 4 for 30 min, fluorescence, n = 3; for FITC-dextran translocation: CPP 100 µM
# Protocol: as §1
# Caco-2 cells [3] = assay: AlamarBlue cell viability assay; type: cell-based, human; settings: for Cell toxicity and viability: CPP 50 µM, Cytotox Red and AlamarBlue assays; for Cell viability (AlamarBlue, % live cells vs control): CPP 5 µM, 1 h treatment (legend; method says 2 h), 37°C, fluorescence 560/590 nm, n = 3
# Protocol: (§2) Caco-2 cells were seeded (6 × 10^3 cells/well) in Corning™ Costar™ 96-Well, Cell Culture-Treated, Flat-Bottom Microplate and grown at 37°C with 5% CO2 until reaching confluence. For alamarBlue cell viability staining, cells were exposed to treatments (DMEM + AlamarBlue (10 µL) + CPPs) at different concentrations and incubated for 2 h at 37°C with 5% CO2. Fluorescence was measured with microplate reader Synergy™ H1 BioTek; (excitation wavelength: 560 nm, emission wavelength: 590 nm) and a curve of Relative Fluorescence Units (RFU) against different concentrations of CPPs was plotted.
# Caco-2 cells [4] = type: cell-based; settings: CPP 1, 5, 10, 50, 100 µM in DMEM, 1 h treatment (legend; method says 2 h), 37°C, Incucyte imaging, n = 2
# Protocol: as §2, with “For alamarBlue cell viability staining, cells were exposed to treatments (DMEM + AlamarBlue (10 µL) + CPPs) at different concentrations and incubated for 2 h at 37°C with 5% CO2.” left out
# […] The cells were then imaged using the Incucyte® Live-Cell analysis instrument. Cytotox Red dye dilution: The dye was diluted to a stock concentration of 100 µM in PBS. This was further diluted in full media to yield a final concentration of 250 nM before adding to the cells.
# [5] = test system: Bifidobacterium longum ATCC 15697; assay: Broth microdilution antimicrobial assay; type: cell-based; settings: microbroth dilution in mGAM, anaerobic, 37 °C, 24 h, OD600, CPP 0.01-100 µM
# Protocol: (§3) Gut commensal microbial strains used in this study (Table 2) were purchased from […] (ATCC) and DSMZ, Germany. The growth and screening experiments were performed in modified Gifu Anaerobic Medium (mGAM) (HyServe GmbH and Co.) as all the strains could grow well in this media. mGAM was pre-reduced for a minimum of 1 day in the anaerobic chamber (Coy laboratory products Inc.) before use.
# (§4) The antimicrobial effects of CPPs were determined by performing microbroth dilution method. The overnight cultures of the strains were diluted 100-fold in mGAM broth and 100 µL of the diluted cultured were distributed in the 96-well microplate. Next, 100 µL of CPPs in their respective concentrations were added to respective wells. Plates were incubated aerobically (Escherichia coli Nissle, Escherichia coli K12, and Saccharomyces boulardii) or anaerobically (rest of the strains) at 37 °C for 24 h with or without shaking, respectively. Reading of each plate was performed by measuring the optical density (OD) at 600 nm in a microplate reader (Synergy™ H1 BioTek). The final absorbance values were normalized and represented as values between 0 and 1 as a heat map, where 0 being full inhibition and 1 being no inhibition. The MIC was determined as the minimum concentration of the CPPs at which no significant growth of the strain was observed as compared to medium only (blank).
# [6] = test system: Latilactobacillus sakei ATCC 15521; assay: Broth microdilution antimicrobial assay; type: cell-based; settings: microbroth dilution in mGAM, anaerobic, 37 °C, 24 h, OD600, CPP 0.01-100 µM
# Protocol: as §3, §4
# [7] = test system: Clostridium bolteae DSM 29485; assay: Broth microdilution antimicrobial assay; type: cell-based; settings: microbroth dilution in mGAM, anaerobic, 37 °C, 24 h, OD600, CPP 0.01-100 µM
# Protocol: as §3, §4
# [8] = rats, without damaging the epithelial barrier integrity, ref Kamei et al., 2008, Morishita et al., Bocsik et al., 2019; cited from earlier work
# Protocol: (§5) In the present work we systematically screened for effective CPPs that promote intestinal permeation through paracellular route and have negligible or no harmful effects against human epithelial cells and gut microbial strains. […] The results from the cytotoxicity and cell viability assays were in concordance except for RRL helix and PN159 at 5 µM. This minor difference most likely has to do with the sensitivity of the assay. The reducing capacity of the cells (as measured by AlamarBlue) is not the same as membrane integrity (as measured by Cytotoxic Red).
# Caco-2 monolayers [9] = settings: cited from earlier work
# Protocol: as §5
# [10] = test system: 10 commensal gut microbial strains; assay: Broth microdilution antimicrobial assay, panel summary; type: cell-based; settings: range over the strains that were totally inhibited; mGAM, 37 °C, 24 h
# Protocol: as §3, §4
# [11] = test system: Escherichia coli Nissle 1917 (Mutaflor); assay: Broth microdilution antimicrobial assay; type: cell-based; settings: microbroth dilution in mGAM, aerobic with shaking, 37 °C, 24 h, OD600, CPP 0.01-100 µM
# Protocol: as §3, §4
# [12] = test system: Lactobacillus gasseri DSM 20077; assay: Broth microdilution antimicrobial assay; type: cell-based; settings: microbroth dilution in mGAM, anaerobic, 37 °C, 24 h, OD600, CPP 0.01-100 µM
# Protocol: as §3, §4
# [13] = test system: Escherichia coli K12 MG 1655; assay: Broth microdilution antimicrobial assay; type: cell-based; settings: microbroth dilution in mGAM, aerobic with shaking, 37 °C, 24 h, OD600, CPP 0.01-100 µM
# Protocol: as §3, §4
# [14] = test system: Bifidobacterium adolescentis DSM 20083; assay: Broth microdilution antimicrobial assay; type: cell-based; settings: microbroth dilution in mGAM, anaerobic, 37 °C, 24 h, OD600, CPP 0.01-100 µM
# Protocol: as §3, §4
# [15] = test system: Bacteroides thetaiotaomicron DSM 2079; assay: Broth microdilution antimicrobial assay; type: cell-based; settings: B. thetaiotaomicron; microbroth dilution in mGAM, anaerobic, 37 °C, 24 h, OD600; CPP 0.01-100 µM
# Protocol: as §3, §4
# [16] = test system: Bacteroides vulgatus ATCC 8482; assay: Broth microdilution antimicrobial assay; type: cell-based; settings: B. vulgatus; microbroth dilution in mGAM, anaerobic, 37 °C, 24 h, OD600; CPP 0.01-100 µM
# Protocol: as §3, §4
molecule,measurement,setting,value
"LLIILRRRIRKQAHAHSK [pVEC, Protein derived cell-penetrating peptide]",Change in TEER values after 1 h treatment with CPPs,Caco-2 monolayers [1],significant reduction in TEER values
same,Concentration without inhibition of growth,Saccharomyces cerevisiae,> 25 µM
same,Paracellular permeability (TEER and FITC-dextran assays collectively),Caco-2 monolayers [2],did not exhibit paracellular permeability
RWFKIQMQIRRWKNKK [Shuffle],Cell toxicity and viability,Caco-2 cells [3],without having significant effects on cell toxicity and viability
same,"Cytotoxicity (Cytotox Red dye staining, dead cells)",Caco-2 cells [4],significant toxicity only at the highest concentration tested (100 µM)
same,Minimum inhibitory concentration (MIC),[5],10 µM
same,Minimum inhibitory concentration (MIC),[6],100 µM
same,Minimum inhibitory concentration (MIC),[7],50 µM
same,Paracellular permeability of FITC-dextran (Papp A-B),Caco-2 monolayers [2],highest paracellular permeability
"RRRRRRRR [R8, Synthetic oligoarginine cell-penetrating peptide]",Reduction in TEER,Caco-2 monolayers [1],did not observe reduction in TEER
same,Intestinal absorption of therapeutic peptides,[8],effective tools at improving intestinal absorption of therapeutic peptides
same,FITC-dextran translocation,Caco-2 monolayers [2],did not observe reduction in TEER or elevated FITC-dextran translocation
same,Paracellular permeability (TEER and FITC-dextran assays collectively),Caco-2 monolayers [2],did not exhibit paracellular permeability
KWFKIQMQIRRWKNKR [Penetramax],Cell toxicity and viability,Caco-2 cells [3],without having significant effects on cell toxicity and viability
same,"Cytotoxicity (Cytotox Red dye staining, dead cells)",Caco-2 cells [4],significant toxicity only at the highest concentration tested (100 µM)
same,Minimum inhibitory concentration (MIC),[5],10 µM
same,Minimum inhibitory concentration (MIC),[6],100 µM
same,Minimum inhibitory concentration (MIC),[7],100 µM
same,Paracellular permeability of FITC-dextran (Papp A-B),Caco-2 monolayers [2],highest paracellular permeability
"RQIKIWFQNRRMKWKK [Penetratin, Protein derived cell-penetrating peptide]",Change in TEER values after 1 h treatment with CPPs,Caco-2 monolayers [1],significant reduction in TEER values
same,Paracellular permeability of Caco-2 monolayers,Caco-2 monolayers [9],did not improve paracellular permeability
same,Concentration without inhibition of growth,Saccharomyces cerevisiae,> 25 µM
same,Permeabilizing effect in the Caco-2 monolayer setup,Caco-2 monolayers [2],no permeabilizing effect
same,Paracellular permeability (TEER and FITC-dextran assays collectively),Caco-2 monolayers [2],did not exhibit paracellular permeability
CC(C)C[C@H](NC(=O)[C@H](C)NC(=O)[C@H](CCCCN)NC(=O)[C@H](CC(C)C)NC(=O)[C@H](C)NC(=O)[C@H](CC(C)C)NC(=O)[C@H](CCCCN)NC(=O)[C@H](CC(C)C)NC(=O)[C@H](C)NC(=O)[C@H](CC(C)C)NC(=O)[C@@H](N)CCCCN)C(=O)N[C@@H](CCCCN)C(=O)N[C@@H](C)C(=O)N[C@@H](C)C(=O)N[C@@H](CC(C)C)C(=O)N[C@@H](CCCCN)C(=O)N[C@@H](CC(C)C)C(=O)N[C@@H](C)C(N)=O [PN159],"Cell viability (AlamarBlue, % live cells vs control)",Caco-2 cells [3],no significant toxic effect; also recorded: no significant effect on cell viability
same,Paracellular permeability of Caco-2 monolayers via tight junction modulation,"Caco-2 monolayers [9]; CPP 3 µM, ref Bocsik et al in 2019",significantly improve paracellular permeability of Caco-2 monolayers
same,"Cytotoxicity (Cytotox Red dye staining, dead cells)",Caco-2 cells [4],toxic at 5 µM; also recorded: Toxicity from 5 μM
same,MICs over the totally inhibited strains of the panel,[10],1 to 50 µM
same,Minimum inhibitory concentration (MIC),[11],50 µM
same,Minimum inhibitory concentration (MIC),[12],5 µM
same,Minimum inhibitory concentration (MIC),[5],1 µM
same,Minimum inhibitory concentration (MIC),[13],5 µM
same,Minimum inhibitory concentration (MIC),[14],10 µM
same,Minimum inhibitory concentration (MIC),[6],1 µM
same,Minimum inhibitory concentration (MIC),[15],10 µM
same,Minimum inhibitory concentration (MIC),[7],1 µM
same,Minimum inhibitory concentration (MIC),[16],10 µM
same,Paracellular permeability of FITC-dextran (Papp A-B),Caco-2 monolayers [2],highest paracellular permeability
RRLRRLLRRLRRLLRRLR [RRL helix],"Cell viability (AlamarBlue, % live cells vs control)",Caco-2 cells [3],no significant toxic effect
same,"Cytotoxicity (Cytotox Red dye staining, dead cells)",Caco-2 cells [4],toxic at 5 µM; also recorded: Toxicity from 5 μM
same,MICs over the totally inhibited strains of the panel,[10],5 to 100 µM
same,Minimum inhibitory concentration (MIC),[11],50 µM
same,Minimum inhibitory concentration (MIC),[5],5 µM
same,Minimum inhibitory concentration (MIC),[14],100 µM
same,Minimum inhibitory concentration (MIC),[6],50 µM
same,Minimum inhibitory concentration (MIC),[7],10 µM
same,Paracellular permeability of FITC-dextran (Papp A-B),Caco-2 monolayers [2],highest paracellular permeability
"RRRRRRRRR [R9, Synthetic oligoarginine cell-penetrating peptide]",Reduction in TEER,Caco-2 monolayers [1],did not observe reduction in TEER
same,Intestinal absorption of therapeutic peptides,[8],effective tools at improving intestinal absorption of therapeutic peptides
same,FITC-dextran translocation,Caco-2 monolayers [2],did not observe reduction in TEER or elevated FITC-dextran translocation
same,Paracellular permeability (TEER and FITC-dextran assays collectively),Caco-2 monolayers [2],did not exhibit paracellular permeability
YGRKKRRQRRR [Tat],Permeabilizing effect in the Caco-2 monolayer setup,Caco-2 monolayers [2],no permeabilizing effect
same,Paracellular permeability (TEER and FITC-dextran assays collectively),Caco-2 monolayers [2],did not exhibit paracellular permeability

# — article PMC9666501, “Screening for effective cell-penetrating peptides with minimal impact on epithelial cells and gut commensals in vitro” (Frontiers in Pharmacology, 2022)
